For 87 compounds, melting point results are on record in a melting point compilation (Tetko et al.; mined from patent text by program, amines drawn as free bases though some values may be those of a salt).

With `COC(=O)c1ccc(-c2nc(O)c(C)s2)cc1`, the melting point was 219 to 220 °C.

Regarding `CCn1c(N)c(C(N)=O)c(=O)c2cnc(Nc3ccc(NCC(=O)C4CC4)cc3)nc21`, the melting point came to 248 °C.

In turn, `CCOC(=O)C(=O)N1CCC(Cc2ccc(F)cc2)CC1` came in with a melting point of 72 to 74 °C.

`CNC(=O)C(Cc1ccc(OCCc2nc(-c3ccccc3)oc2C)cc1)C(=O)NC` showed a melting point of 217 to 219 °C.

For `Clc1ccc(-c2nc(NCc3ccccc3)c3ccccc3n2)cn1`, the melting point is 212 °C.

Compound `CC(=O)c1ccc(OC2SCC(O)C(O)C2O)cc1` (configuration not stated) registered a melting point of 195 to 198 °C.

For the compound `COC(=O)CCC(=O)c1cc(C(C)C)c(Oc2nnnn2-c2ccccc2)c(C(C)C)c1`, the melting point lay in the range of 122 to 123 °C.

`COC(=O)N(C)C1CN(C(=O)Nc2ccc(OC(F)(F)F)cc2)N=C1c1ccc(O)cc1` (configuration not stated) came in with a melting point of 228 to 233 °C.

Regarding `CN(CCO)C(=O)C(C)(C)NC(=O)c1cc2c(n(CC3CCCCC3)c1=O)CCCCCC2`, the melting point is 195 to 196 °C.

`O=Cc1ccc(Cl)c(-c2ccccc2)c1` returned a melting point of 84 °C.

On to `CCc1ccc(C(=O)Nc2ccccc2)cc1Nc1cccc(C(F)(F)F)c1`, for which the melting point is 133 to 134 °C.

The compound `CCOC(=O)c1c(C(C)C)nc(C(C)C)c(C(=O)OCC)c1-c1ccc(OCc2ccccc2)cc1` came in with a melting point of 87 °C.

In turn, `COC(=O)c1ccc2c(c1)SCCCC2=O` had a melting point of 63 to 64 °C.

Compound `NC(=O)NN=Cc1ccc(Oc2cc(Cl)ccn2)cc1` came in with a melting point of 231 to 233 °C.

The compound `O=S(=O)(CCc1ccccc1)CCc1ccccc1` displayed a melting point of 98 to 99 °C.

On to `NOCc1cn(C(c2ccccc2)(c2ccccc2)c2ccccc2)nn1`, for which the melting point lay within 144 to 145 °C.

The compound `CC(=O)Nc1cccc(C=CC(=O)C2C(=O)OC(=O)C(C(C)=O)=C2O)c1` (configuration not stated) registered a melting point of 222 to 224 °C.

Compound `CC1CN(Cc2ccccc2)C(=O)C(=C2SC=CS2)C1=O` (configuration not stated) displayed a melting point of 168 to 170 °C.

In turn, `CN(c1cccc2cc(-c3nncs3)[nH]c12)S(=O)(=O)c1cccs1` registered a melting point of 270 to 271 °C.

Compound `CCCc1nc(N(C)c2ccccc2)n2ncc(C(=O)c3ccccc3Cl)c2n1` gave a melting point of 149 to 151 °C.

Take `CC(C)(C)OC(=O)[C@H]1C[C@H](C(=O)Nc2ccccc2)[C@@H](c2ccccc2)N1C(=O)CNC(=O)Nc1cccc(C(=O)O)c1` (racemic): the melting point came to 160 °C.

Compound `Cc1c(C)c2c(c(C)c1OCc1ccccn1)C(c1ccc(C(C)C)cc1)C(C)(C)O2` (configuration not stated) displayed a melting point of 88 to 89 °C.

For the compound `C=CC1OC(=O)N2c3ccc(O)cc3CCC12` (configuration not stated), the melting point amounted to 250 °C.

In turn, `COC(=O)CNc1ccc(CNC(=O)C2Cc3ccccc3N2S(=O)(=O)c2ccc(-c3cccc(C(F)(F)F)c3)cc2)cc1` (configuration not stated) displayed a melting point of 85 °C.

On to `Nc1c(Cl)cc(C(O)CNCCCCCC(=O)OCCOc2ccccc2)cc1Cl` (configuration not stated), for which the melting point lay within 46 to 47 °C.

The compound `CC(C)[C@H](NC(=O)OCc1ccccc1)C(=O)NC(Cc1ccccc1)C(O)C(Cc1ccccc1)NC(=O)[C@@H](NC(=O)OCc1ccccc1)C(C)C` (some centres not stated) gave a melting point of 198 to 200 °C.

For `CCCn1nc(OCc2ccc3ccccc3n2)cc1C(=O)OC`, the melting point was 71 to 72 °C.

The compound `C=C1CCC2C3CC=C4C=C(OC)CCC4(C)C3CCC12C` (configuration not stated) returned a melting point of 97 to 99 °C.

`NC(=O)C1(N)CCCCC1` returned a melting point of 99 to 102 °C.

`CN(CC(F)(F)F)C(=O)COc1nnc(-c2ccccc2)s1` registered a melting point of 123 °C.

For `Cc1cc(Cl)c2cc(F)c(OCc3ccccc3)cc2n1`, the melting point lay in the range of 110 to 111 °C.

For `CC1(CN2CCCN(Cc3ccc(-c4ccccc4)cc3)CC2)Cn2cc([N+](=O)[O-])nc2O1` (configuration not stated), the melting point lay within 138 to 142 °C.

The compound `O=C1Cc2cccc(Oc3ccccn3)c2N1` showed a melting point of 187 to 191 °C.

As for `CCOC(=O)Nc1nc(-c2ccccc2)c(-c2nc3ccccc3c(=O)n2-c2cccc(OC)c2)s1`, the melting point is 204 to 205 °C.

Turning to `CC(C)(C)N(NC(=O)c1ccccc1)C(=O)C1CCCCC1`, the melting point lay in the range of 202 to 204 °C.

Turning to `NS(=O)(=O)c1ccc(C=O)cc1`, the melting point was 104 to 106 °C.

The compound `CSc1ccc(C2=C(c3ccc(C)cc3)CCC2)cc1` came in with a melting point of 64.5 to 66.5 °C.

Regarding `CN(C(=O)CBr)c1cccc(-c2ccnc3c(C(=O)c4ccccc4)cnn23)c1`, the melting point lay in the range of 175 to 177 °C.

With `CC(C)[C@@H]1NC(=O)OC1(c1ccccc1)c1ccccc1`, the melting point lay in the range of 250 to 251 °C.

As for `COc1ccc2c(c1)c(CC(=O)OC(C)(C)C)c(C)n2C(=O)c1ccc(Cl)cc1`, the melting point lay within 103 to 104 °C.

`O=C(NC1CCN(CCCc2ccc(F)cc2)C1)C12CC3CC(CC(C3)C1)C2` (configuration not stated) displayed a melting point of 114 to 115 °C.

The compound `CCOC(=O)N1CC(C)N(C(C)C(O)(Cn2cncn2)c2ccc(F)cc2F)CC1C` (configuration not stated) registered a melting point of 57 to 59 °C.

Compound `CCOC(=O)Cc1csc(-c2c(O)cccc2O)n1` gave a melting point of 152 to 154 °C.

The compound `O=[N+]([O-])c1ccc(S(=O)CCCCl)cc1` (configuration not stated) displayed a melting point of 72.5 to 74.5 °C.

With `O=C1CCCN1Cc1ccc2ccn(C3CCN(CCc4ccc(F)cc4)CC3)c2c1`, the melting point was 106 to 108 °C.

With `CCCCCCC(CCCn1c(CCC)nc2c(N)nc3ccccc3c21)=NO`, the melting point is 113 to 115 °C.

`NC(=O)c1cccc(Cn2ccc(OCc3ccc(F)cc3F)c(Br)c2=O)c1` registered a melting point of 198 to 201 °C.

On to `CCc1nc2c(C(N)=O)cccc2n1-c1ccc(CCNC(=O)NS(=O)(=O)c2ccc(C)cc2)cc1`, for which the melting point was in the range of 208 to 214 °C.

The compound `CC1CC=C(Nc2ccc(Br)cc2)c2ncc(C(=O)O)c(=O)n21` (configuration not stated) had a melting point of 202 to 204 °C.

Regarding `Cc1c(C#N)cc(C(C)(C)C)c(O)c1C(=O)Nc1ccc(S(=O)(=O)c2ccc(Br)cc2)cc1C(F)(F)F`, the melting point lay in the range of 221 to 223 °C.

As for `O=C1CC2(CCCC2)CC(=O)N1c1ccncc1`, the melting point lay within 208 to 211 °C.

With `COC(=O)c1cc(C(C)C)sc1NC(=O)Nc1ccc(C)cc1`, the melting point lay within 49 to 51 °C.

In the case of `NS(=O)(=O)c1cccc(S(=O)(=O)NC2CCC2)c1`, the melting point was in the range of 140 to 143 °C.

Compound `CC1=C(C(=O)OC(C)C)C(c2cccc([N+](=O)[O-])c2)N(C(=O)OC(C)C)C(=S)N1` (configuration not stated) returned a melting point of 138 °C.

Regarding `CCOC(=O)c1ccc(N)c(CNC(C)(C)C)c1`, the melting point was 77 to 79 °C.

Compound `CS(=O)(=O)c1ccc(C(CC2CCCC2)C(=O)Nc2nccs2)cc1F` (configuration not stated) yielded a melting point of 200 to 202 °C.

`CC(C)CN1C(=O)CC[C@H]1COC(c1ccccc1)(c1ccccc1)c1ccccc1` returned a melting point of 91 to 93 °C.

`CC1(C)C2CCC1(CS(=O)(=O)NCCC1CCc3ccccc31)C(=O)C2` (configuration not stated) came in with a melting point of 52 to 70 °C.

Consider `CNC(=S)Nc1ccccc1-c1nc(C)c(-c2cccnc2)[nH]1`, for which the melting point is 192 to 193 °C.

Compound `COc1cc2[nH]c(C(=O)O)cc2c(C)c1C` gave a melting point of 208 °C.

Turning to `CCOc1ccc(-c2ccc3c(c2)C=C(C(=O)Nc2ccc(CN(C)C4CCC5(CC4)OCCO5)cc2)CCS3(=O)=O)cc1`, the melting point is 220 to 223 °C.

The compound `N#Cc1cnn2c1N(C(=O)CN1CCC(Cc3ccccc3)CC1)CC=C2c1cc(Cl)ccc1Cl` came in with a melting point of 157 to 158 °C.

With `COc1cc(OC)nc(NC(=O)NS(=O)(=O)c2ncccc2OS(=O)(=O)N(C)C)n1`, the melting point fell in the range of 155 to 157 °C.

Take `O=C(CS(=O)(=O)c1ccccc1)c1ccccn1`: the melting point was in the range of 101 to 103 °C.

As to `O=C(O)c1ccc(CN(Cc2ccc(C(F)(F)P(=O)(O)O)c(Br)c2)S(=O)(=O)c2ccccc2)cc1`, the melting point lay in the range of 160 to 162 °C.

In the case of `Cc1cc(C)c2c(-c3cccc(Cl)c3)cc(=O)n(C)c2n1`, the melting point lay in the range of 161 to 162 °C.

As for `COc1cc2ncc(C#N)c(Nc3ccccc3C(N)=O)c2cc1OC`, the melting point fell in the range of 238 to 240 °C.

Compound `Cc1cccc(Nc2cc(Nc3cccc(O)c3)ncn2)c1` displayed a melting point of 188 to 189 °C.

The compound `CN1CC(C(Oc2ccccc2[N+](=O)[O-])c2ccccc2)OCC1=O` (configuration not stated) yielded a melting point of 192 to 195 °C.

The compound `Cc1cc(C)c(-n2[nH]c(Nc3ccc(Cl)cc3)cc2=O)c(C)c1N` came in with a melting point of 236 to 237 °C.

`CS(C)=Nc1nc(OCc2ccccc2)ncc1F` had a melting point of 125 to 129 °C.

Compound `O=S(=O)(c1ccc(Cl)cc1)C1(c2nnnn2Cc2ccccc2)CCCCC1` had a melting point of 154 to 155 °C.

`Cn1c(=O)oc(=O)c2cc(F)ccc21` showed a melting point of 133 °C.

`O=C(NN1CCCCCC1)C(CS)Cc1ccccc1` (configuration not stated) returned a melting point of 82 °C.

Regarding `CCCCOCCOc1ccc(-c2ccc3c(c2)C=C(C(=O)Nc2ccc(C(O)c4ccccn4)cc2)CCS3(=O)=O)cc1` (configuration not stated), the melting point was in the range of 173 to 174 °C.

Consider `CCOCc1nc2c(N)nc3ccc(OCc4ccccc4)cc3c2n1CCCCNS(C)(=O)=O`, for which the melting point lay within 182 to 185 °C.

`O=C(N1CCCC1)C1(Cc2ccccc2)CCN(Cc2ccccc2)CC1`: the melting point is 129 °C.

In turn, `Cc1nn(C)c(C)c1-c1cccc(OC2SCC(O)C(O)C2O)c1` (configuration not stated) yielded a melting point of 95 °C.

`CNC(=O)c1cccc(-c2ccc3nnn(Cc4ccc5ncccc5c4)c3n2)c1` registered a melting point of 215 to 217 °C.

The compound `O=C(CN1CCC(Cc2ccccc2)CC1)Nc1ccc2cn[nH]c2c1` had a melting point of 165 to 169 °C.

`O=C1CCCc2c(O)cccc2N1` returned a melting point of 244 to 245 °C.

In the case of `CC1(C)CC(=O)N(C(=O)OCc2ccccc2)CC(C)(C)N1`, the melting point was in the range of 86 to 88 °C.

The compound `COc1ccc(C2CCCN(C(=O)C(F)(F)F)C2)cc1` (configuration not stated) registered a melting point of 88 °C.

For the compound `CCCN(CCC)C(=O)CNc1nc(-c2ccccc2)nc(C(F)(F)F)c1Cl`, the melting point lay in the range of 115 to 117 °C.

As to `COc1cc2c(cc1OC)N(C(N)=O)C(=O)C2`, the melting point is 206 to 209 °C.

Regarding `O=C(NCc1cccs1)C1(c2ccc(Cl)cc2)CCCC1`, the melting point fell in the range of 119 to 120 °C.

`CN1C(=O)CC[C@]2(C)c3ccc(Sc4ncccc4[N+](=O)[O-])cc3CC[C@@H]12`: the melting point is 80 to 84 °C.

As a reminder, the melting point is the temperature, or range, at which the solid turns liquid.
